Assay results: ChEMBL document CHEMBL1177855, “Synthesis of some N-alkyl substituted urea derivatives as antibacterial and antifungal agents” (2010)
Converted amounts (≈) assume the structure as drawn.

How the values were obtained:
Assay type in all cases: functional
Escherichia coli = assay: Antibacterial activity against Escherichia coli ATCC 35218 after 24 hrs by MTT assay; settings: ATCC 35218, 24 h
Pseudomonas aeruginosa = assay: Antibacterial activity against Pseudomonas aeruginosa ATCC 13525 after 24 hrs by MTT assay; settings: ATCC 13525, 24 h
Bacillus subtilis = assay: Antibacterial activity against Bacillus subtilis ATCC 6633 after 24 hrs by MTT assay; settings: ATCC 6633, 24 h
Staphylococcus aureus = assay: Antibacterial activity against Staphylococcus aureus ATCC 6538 after 24 hrs by MTT assay; settings: ATCC 6538, 24 h
Aspergillus niger = assay: Antifungal activity against Aspergillus niger ATCC 16404 after 24 hrs by MTT assay; settings: ATCC 16404, 24 h
Trichophyton rubrum = assay: Antifungal activity against Trichophyton rubrum ATCC 10218 after 24 hrs by MTT assay; settings: ATCC 10218, 24 h

Row | SMILES | MIC (Escherichia coli) [µg/mL] | MIC (Pseudomonas aeruginosa) [µg/mL] | MIC (Bacillus subtilis) [µg/mL] | MIC (Staphylococcus aureus) [µg/mL] | MIC (Aspergillus niger) [µg/mL] | MIC (Trichophyton rubrum) [µg/mL]
1 | CCN(CC)C(=O)Nc1ccc(Cl)cc1Cl | > 50 | > 50 | > 50 | > 50 | 45.2 (≈ 173 µM) | > 50
2 | CC(C)c1ccc(NC(=O)N2CCOCC2)cc1 | 7.2 (≈ 29 µM) | 8 (≈ 32.2 µM) | > 50 | > 50 | > 50 | 20.7 (≈ 83.4 µM)
3 | O=C(Nc1ccc(F)cc1)N1CCOCC1 | 1.6 (≈ 7.14 µM) | 6.2 (≈ 27.6 µM) | > 50 | > 50 | > 50 | 3.5 (≈ 15.6 µM)
4 | O=C(Nc1ccccc1F)N1CCOCC1 | 2.1 (≈ 9.37 µM) | 12.5 (≈ 55.7 µM) | 1.6 (≈ 7.14 µM) | > 50 | > 50 | 3.1 (≈ 13.8 µM)
5 | O=C(Nc1ccc(F)cc1F)N1CCOCC1 | 4.2 (≈ 17.3 µM) | > 50 | > 50 | > 50 | > 50 | 18.2 (≈ 75.1 µM)
6 | O=C(Nc1ccc(Cl)cc1Cl)N1CCOCC1 | 12.5 (≈ 45.4 µM) | 50 (≈ 182 µM) | > 50 | > 50 | > 50 | > 50
7 | O=C(Nc1ccc(Br)cc1)N1CCOCC1 | 3.1 (≈ 10.9 µM) | 37.1 (≈ 130 µM) | > 50 | > 50 | > 50 | > 50
8 | O=C(Nc1ccc2c(c1)Cc1ccccc1-2)N1CCOCC1 | > 50 | 31.5 (≈ 107 µM) | 40.2 (≈ 137 µM) | > 50 | > 50 | 31.2 (≈ 106 µM)
9 | O=C(Nc1ccccc1)N1CCOCC1 | 6.2 (≈ 30.1 µM) | 22 (≈ 107 µM) | > 50 | > 50 | > 50 | > 50
10 | Cc1ccc(NC(=O)N2CCOCC2)cc1 | 7.2 (≈ 32.7 µM) | > 50 | > 50 | > 50 | > 50 | 38.4 (≈ 174 µM)
11 | O=C(Nc1ccccc1Cl)N1CCOCC1 | 3.1 (≈ 12.9 µM) | > 50 | 3.1 (≈ 12.9 µM) | > 50 | > 50 | > 50
12 | COc1ccc(NC(=O)N2CCOCC2)cc1 | 7.5 (≈ 31.7 µM) | 12.5 (≈ 52.9 µM) | > 50 | > 50 | > 50 | 12.5 (≈ 52.9 µM)
13 | O=C(Nc1cc(Cl)cc(Cl)c1)N1CCOCC1 | 12.5 (≈ 45.4 µM) | 8.8 (≈ 32 µM) | 6.2 (≈ 22.5 µM) | > 50 | > 50 | 12.5 (≈ 45.4 µM)
14 | O=C(N1CCOCC1)N1CCCc2ccccc21 | > 50 | 8.2 (≈ 33.3 µM) | > 50 | > 50 | 12.5 (≈ 50.7 µM) | 12.5 (≈ 50.7 µM)
15 | O=C(Nc1cccc2cccnc12)N1CCOCC1 | > 50 | 25.3 (≈ 98.3 µM) | 38.7 (≈ 150 µM) | > 50 | > 50 | 40.8 (≈ 159 µM)
16 | CCN(CC)C(=O)Nc1ccc(F)cc1 | 25 (≈ 119 µM) | 12.5 (≈ 59.5 µM) | 6.2 (≈ 29.5 µM) | > 50 | > 50 | 32.6 (≈ 155 µM)
17 | CCN(CC)C(=O)Nc1ccccc1F | 25 (≈ 119 µM) | > 50 | 12.5 (≈ 59.5 µM) | > 50 | > 50 | > 50
18 | CCN(CC)C(=O)Nc1ccc(F)cc1F | 25 (≈ 110 µM) | > 50 | 12.5 (≈ 54.8 µM) | > 50 | > 50 | > 50
19 | CCN(CC)C(=O)Nc1ccc(C(C)C)cc1 | > 50 | 12.5 (≈ 53.3 µM) | > 50 | > 50 | > 50 | > 50
20 | CCN(CC)C(=O)Nc1ccc(Br)cc1 | 25 (≈ 92.2 µM) | > 50 | > 50 | > 50 | 23 (≈ 84.8 µM) | > 50
21 | NC[C@H]1O[C@H](O[C@H]2[C@H](O)[C@@H](O[C@H]3O[C@H](CO)[C@@H](O)[C@H](N)[C@H]3O)[C@H](N)C[C@@H]2N)[C@H](O)[C@@H](O)[C@@H]1O [KANAMYCIN] | 3.1 (≈ 6.4 µM) | 3.1 (≈ 6.4 µM) | 0.4 (≈ 0.826 µM) | 1 (≈ 2.06 µM) |  | 
22 | CC(=O)N1CCN(c2ccc(OCC3COC(Cn4ccnc4)(c4ccc(Cl)cc4Cl)O3)cc2)CC1 (stereo not given) [KETOCONAZOLE] |  |  |  |  | 7.8 (≈ 14.7 µM) | 3.9 (≈ 7.34 µM)
23 | CC1(C)S[C@@H]2[C@H](NC(=O)Cc3ccccc3)C(=O)N2[C@H]1C(=O)O [PENICILLIN G] | > 50 | 6.2 (≈ 18.5 µM) | 1.6 (≈ 4.78 µM) | 2 (≈ 5.98 µM) |  | 
